Laboratory results reported in patent US20240132484A1, “BROAD SPECTRUM ANTIVIRAL COMPOUNDS TARGETING THE SKI COMPLEX” (priority 2020, published 2024).
Where “and” joins values, the source holds several entries; their conditions need not be identical. Identical values can stand only once. Like-named read-outs stand apart in the source and are kept apart here.

How the values were obtained:
[1] = tested on: SARS2; format: cell-based, SARS-CoV-2; details: for Percentage Inhibition Average 1 μM / Screening data (Relative infection to DMSO controls) Average 1 μM: SARS2, 1 μM; for Screening data (Relative infection to DMSO controls) Average 1 μM / Screening data (Relative infection to DMSO controls) Average 5 μM / Screening data (Relative infection to DMSO controls) Average 10 μM / Screening data (Relative infection to DMSO controls) Average 25 μM / Screening data (Relative infection to DMSO controls) Average 50 μM / Average (relative infection to DMSO over the 5 tested concentrations): 100=DMSO control; for Percentage Inhibition Average 5 μM / Screening data (Relative infection to DMSO controls) Average 5 μM: SARS2, 5 μM; for Percentage Inhibition Average 10 μM / Screening data (Relative infection to DMSO controls) Average 10 μM: SARS2, 10 μM; for Percentage Inhibition Average 25 μM / Screening data (Relative infection to DMSO controls) Average 25 μM: SARS2, 25 μM; for Percentage Inhibition Average 50 μM / Screening data (Relative infection to DMSO controls) Average 50 μM: SARS2, 50 μM; for Average (relative infection to DMSO over the 5 tested concentrations): SARS2, average over 1 to 50 uM; for Percentage Infection Relative to Appropriate DMSO Control: avg background subtraction
[2] = tested on: cells (nuclei count); details: for Relative cell count to DMSO controls, Average 1 μM / Relative cell count to DMSO controls, Average 5 μM / Relative cell count to DMSO controls, Average 10 μM / Relative cell count to DMSO controls, Average 25 μM / Relative cell count to DMSO controls, Average 50 μM: toxicity data, 100=DMSO control; for Relative cell count to DMSO controls, Average (for correlation analysis): average value over the 5 tested concentrations (1 to 50 uM)

## COc1ccc(C2NC(=O)NC(C)=C2C(=O)NC2CCCCCC2)cc1OC (stereo not shown) [SILCS59]
[1]
  Percentage Inhibition Average 1 μM: 29.42%
  Screening data (Relative infection to DMSO controls) Average 1 μM: 70.58
  Percentage Inhibition Average 5 μM: 33.20%
  Screening data (Relative infection to DMSO controls) Average 5 μM: 66.80
  Percentage Inhibition Average 10 μM: 16.88%
  Screening data (Relative infection to DMSO controls) Average 10 μM: 83.12
  Percentage Inhibition Average 25 μM: −8.59%
  Screening data (Relative infection to DMSO controls) Average 25 μM: 108.59
  Percentage Inhibition Average 50 μM: −28.37%
  Screening data (Relative infection to DMSO controls) Average 50 μM: 128.37
  Average (relative infection to DMSO over the 5 tested concentrations): 91.49
[2]
  Relative cell count to DMSO controls, Average 1 μM: 115.37
  Relative cell count to DMSO controls, Average 5 μM: 119.78
  Relative cell count to DMSO controls, Average 10 μM: 116.3
  Relative cell count to DMSO controls, Average 25 μM: 100.03
  Relative cell count to DMSO controls, Average 50 μM: 86.44
  Relative cell count to DMSO controls, Average (for correlation analysis): 107.58

## Cc1ccc(CN(CCN(C)C)Cc2cc(C#CCO)cs2)s1 [SILCS1]
[1]; 1 uM, Exp 1 (SMW454), single wells
  Percentage Infection Relative to Appropriate DMSO Control: 99.35% and 98.10% and 99.72%
[1]; 5 uM, Exp 1 (SMW454), single wells
  Percentage Infection Relative to Appropriate DMSO Control: 112.30% and 117.54% and 117.35%
[1]; 10 uM, Exp 1 (SMW454), single wells
  Percentage Infection Relative to Appropriate DMSO Control: 107.68% and 118.84% and 98.07%
[1]; 25 uM, Exp 1 (SMW454), single wells
  Percentage Infection Relative to Appropriate DMSO Control: 103.38% and 104.01% and 105.61%
[1]; 50 uM, Exp 1 (SMW454), single wells
  Percentage Infection Relative to Appropriate DMSO Control: 103.48% and 93.04% and 95.93%
[1]; Average of Exp 1-3, n 9, 1 uM
  Infection Data, Average, Mean: 122.42%
[1]; Average of Exp 1-3, n 9, 5 uM
  Infection Data, Average, Mean: 119.79%
[1]; Average of Exp 1-3, n 9, 10 uM
  Infection Data, Average, Mean: 100.52%
[1]; Average of Exp 1-3, n 9, 25 uM
  Infection Data, Average, Mean: 61.83%
[1]; Average of Exp 1-3, n 9, 50 uM
  Infection Data, Average, Mean: 43.32%
[1]; Exp 2 (SMW466), 1 uM
  Percentage Infection Relative to Appropriate DMSO Control: 148.68% and 144.39% and 143.85%
[1]; Exp 2 (SMW466), 5 uM
  Percentage Infection Relative to Appropriate DMSO Control: 114.43% and 126.13% and 128.85%
[1]; Exp 2 (SMW466), 10 uM
  Percentage Infection Relative to Appropriate DMSO Control: 102.74% and 102.52% and 110.68%
[1]; Exp 2 (SMW466), 25 uM
  Percentage Infection Relative to Appropriate DMSO Control: 28.51% and 36.47% and 30.25%
[1]; Exp 3 (SMW480), 1 uM
  Percentage Infection Relative to Appropriate DMSO Control: 128.15% and 110.09% and 129.44%
[1]; Exp 3 (SMW480), 5 uM
  Percentage Infection Relative to Appropriate DMSO Control: 127.64% and 114.03% and 119.89%
[1]; Exp 3 (SMW480), 10 uM
  Percentage Infection Relative to Appropriate DMSO Control: 73.36% and 110.69% and 80.10%
[1]; Exp 3 (SMW480), 25 uM
  Percentage Infection Relative to Appropriate DMSO Control: 55.94% and 38.83% and 53.44%
[1]; Exp 3 (SMW480), 50 uM
  Percentage Infection Relative to Appropriate DMSO Control: 27.26% and 20.30% and 23.61%
[1]
  Percentage Inhibition Average 1 μM: −22.42%
  Screening data (Relative infection to DMSO controls) Average 1 μM: 122.42
  Percentage Inhibition Average 5 μM: −19.79%
  Screening data (Relative infection to DMSO controls) Average 5 μM: 119.79
  Percentage Inhibition Average 10 μM: −0.52%
  Screening data (Relative infection to DMSO controls) Average 10 μM: 100.52
  Percentage Inhibition Average 25 μM: 38.17%
  Screening data (Relative infection to DMSO controls) Average 25 μM: 61.83
  Percentage Inhibition Average 50 μM: 56.68%
  Screening data (Relative infection to DMSO controls) Average 50 μM: 43.32
  Average (relative infection to DMSO over the 5 tested concentrations): 89.58
[2]
  Relative cell count to DMSO controls, Average 1 μM: 98.82
  Relative cell count to DMSO controls, Average 5 μM: 99.54
  Relative cell count to DMSO controls, Average 10 μM: 108.52
  Relative cell count to DMSO controls, Average 25 μM: 116.28
  Relative cell count to DMSO controls, Average 50 μM: 84.14
  Relative cell count to DMSO controls, Average (for correlation analysis): 101.46
[2]; Average of Exp 1-3, n 9, 1 uM
  Toxicity Data, Average, Mean: 98.82%
[2]; Average of Exp 1-3, n 9, 5 uM
  Toxicity Data, Average, Mean: 99.54%
[2]; Average of Exp 1-3, n 9, 10 uM
  Toxicity Data, Average, Mean: 108.52%
[2]; Average of Exp 1-3, n 9, 25 uM
  Toxicity Data, Average, Mean: 116.28%
[2]; Average of Exp 1-3, n 9, 50 uM
  Toxicity Data, Average, Mean: 84.14%
[2]; Exp 1 (SMW454), 1 uM
  Toxicity Data, nuclei count relative to DMSO controls: 105.2% and 108.8% and 106.3%
[2]; Exp 1 (SMW454), 5 uM
  Toxicity Data, nuclei count relative to DMSO controls: 102.9% and 104.5% and 102.2%
[2]; Exp 1 (SMW454), 10 uM
  Toxicity Data, nuclei count relative to DMSO controls: 107.4% and 106.9% and 105.6%
[2]; Exp 1 (SMW454), 25 uM
  Toxicity Data, nuclei count relative to DMSO controls: 94.7% and 94.9% and 95.9%
[2]; Exp 1 (SMW454), 50 uM
  Toxicity Data, nuclei count relative to DMSO controls: 83.8% and 87.1% and 84.9%
[2]; Exp 2 (SMW466), 1 uM
  Toxicity Data, nuclei count relative to DMSO controls: 93.5% and 94.5% and 96.6%
[2]; Exp 2 (SMW466), 5 uM
  Toxicity Data, nuclei count relative to DMSO controls: 107.1% and 94.1% and 106.7%
[2]; Exp 2 (SMW466), 10 uM
  Toxicity Data, nuclei count relative to DMSO controls: 107.3% and 102.2% and 104.0%
[2]; Exp 2 (SMW466), 25 uM
  Toxicity Data, nuclei count relative to DMSO controls: 130.6% and 124.7% and 133.0%
[2]; Exp 2 (SMW466), 50 uM
  Toxicity Data, nuclei count relative to DMSO controls: 88.5% and 77.1% and 78.5%
[2]; Exp 3 (SMW480), 1 uM
  Toxicity Data, nuclei count relative to DMSO controls: 89.7% and 102.3% and 92.4%
[2]; Exp 3 (SMW480), 5 uM
  Toxicity Data, nuclei count relative to DMSO controls: 88.1% and 95.7% and 94.5%
[2]; Exp 3 (SMW480), 10 uM
  Toxicity Data, nuclei count relative to DMSO controls: 124.6% and 98.4% and 120.2%
[2]; Exp 3 (SMW480), 25 uM
  Toxicity Data, nuclei count relative to DMSO controls: 120.8% and 130.3% and 121.5%
[2]; Exp 3 (SMW480), 50 uM
  Toxicity Data, nuclei count relative to DMSO controls: 72.1% and 98.8% and 86.4%
